Laboratory results published in patent US11230542B2, “Inhibitors of integrated stress response pathway” (Praxis Biotech LLC, priority 2017, dated 2022).
Read-outs that look alike come from different tables or passages of the source.

Key:
CHO cells = assay: Protein translation assay (puromycin incorporation in CHO cells, unstressed or Tg-stressed); type: cell-based, Chinese hamster; settings: Cricetulus griseus, media alone 100%
Procedure, shortened: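 CHO cells pretreated 2 h with 1 μM compound (unstressed), or 1 h with 100 nM or 1 μM then co-treated with 300 nM Tg. Pulse-labelled with 10 μg/ml puromycin for 30 min, then anti-puromycin western blot with densitometry. Unstressed values normalized to media alone (100%); stressed recovery scaled between media alone (100%) and Tg alone (0%).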

[1] = system: Balb/c mice injected with CT26 colon carcinoma cell line; assay: Cachexia-induced muscle atrophy (CT26 tumor cells); type: in vivo, mouse; settings: 10 mg/kg daily oral gavage for 13 days
Description: (§1) Wild type six-weeks-old male Balb/c mice obtained from the vivarium Fundacion Ciencia & Vida Chile (Santiago, Chile) were used. Mice were housed in independent plastic cages in a room maintained at 25° C. with a 12-h:12-h light:dark cycle.
1×10^6 CT26 colon carcinoma cell line (ATCC #CRL-2638, ATCC Manassas, Va.) were injected subcutaneously in the right lower flank of each animal for induction of cachexia-induced muscle atrophy as described (Nat Commun. 2012 Jun. 12; 3:896). Non-injected animals were used as controls. At day 6 post tumor-cell injection, animals were randomized into two groups and treated with 10 mg/kg of compound 3 formulated in 50% Polyethylene glycol (PEG-400) in distilled water, or with vehicle (50% PEG-400 in distilled water) by daily oral gavage for 13 days.
For in vivo measurements of protein synthesis, 30 min before the study ends, animals were injected intraperitoneally with puromycin (Sigma-Aldrich, P8833) at 0.04 μmol/g body weight in a volume of 200 μL of PBS. […]
Upon collection, muscles were immediately frozen in liquid nitrogen and then stored at −80° C. […] Protein concentration in supernatants was determined using BCA Protein Assay Kit (Pierce). […]
Puromycin (12D10) (Merck Millipore) and β-actin (Sigma-Aldrich) antibodies were used as primary antibodies. […] Quantification of protein bands was done by densitometry using ImageJ software.

[2] = system: CT26 colon carcinoma cell line; assay: Tumor growth and density model; type: in vivo, mouse; settings: 10 mg/kg daily oral gavage for 13 days from day 6 post tumor-cell injection
Description: as §1
1×10^6 CT26 colon carcinoma cell line (ATCC #CRL-2638, ATCC Manassas, Va.) were injected subcutaneously in the right lower flank of each animal as described (Nat Commun. 2012 Jun. 12; 3:896). Non-injected animals were used as controls. At day 6 post tumor-cell injection, mean tumor volume was about 100 mm^3, animals were weighed and randomized into two groups and treated with 10 mg/kg of compound 3 formulated in 50% Polyethylene glycol (PEG-400) in distilled water, or with vehicle (50% PEG-400 in distilled water) by daily oral gavage for 13 days.
At the end of the study, tumors were measured with digital caliper and tumors volumes, expressed in mm^3, were calculated with the following formula: Tumor volume (mm^3)=(a×b^2)/2 where “a” is the largest perpendicular diameter and “b” is the smallest diameter. Animals were then sacrificed and tumors were extracted and weighed. The volumes and weight of the tumors of each animal are shown in FIGS. 12A and 12B respectively. Bars represent mean±SEM. Statistical analyses were performed using GraphPad Prism software and significant difference was assessed by t test (*<0.05).

SMILES: O=C(COc1ccc(Cl)cc1)N[C@H]1CC[C@H](NC[C@@H](O)COc2ccc(Cl)cc2)CC1 (single isomer, unassigned) [Compound 3, (+)-2-(4-chlorophenoxy)-N-(4-((3-(4-chlorophenoxy)-2-hydroxypropyl)amino)cyclohexyl)acetamide]
- activity at 0.1 µM (CHO cells; CHO cells stressed with 300 nM Tg, Tg alone 0%, read-out: % Recovery of protein expression (100 nM test compound)): 69.4%
- activity at 1 µM (CHO cells; CHO cells stressed with 300 nM Tg, Tg alone 0%, read-out: % Recovery of protein expression (1 μM test compound)): 155%
- activity at 1 µM (CHO cells; unstressed CHO cells, 2 h, read-out: % Protein expression relative to untreated (1 μM test compound)): 162%
- muscle weight (gastrocnemius, quadriceps, tibialis anterior) [1]: prevented the CT26-induced muscle weight loss
- protein synthesis in muscle ([1]; quadriceps and tibialis anterior, versus vehicle): significantly increase protein synthesis
- tumor density (weight/volume ratio) [2]: significantly reduce the tumor density
- tumor volume [2]: does not reduce tumor volume
